{
  "source": "patent US20130030025A1",
  "about": "“USE OF POTASSIUM CHANNEL BLOCKERS TO TREAT CEREBRAL PALSY” (priority 2011, published 2013)",
  "key": {"[1]": {"system": "middle cerebral artery occlusion (MCAO) in rats", "test": "Hindlimb placing test after MCAO", "assay_type": "in vivo, Sprague Dawley rats", "design": "Hindlimb Placing Total Score, Mean: scale not given here", "description": "4-AP was evaluated for its ability to promote functional sensorimotor improvement following ischemic stroke in rats with stable motor deficits at times remote from their ischemic events. The animal model mimics the conditions in human ischemic stroke and is produced by middle cerebral artery occlusion (MCAO), which results in extensive infarction in cerebral cortex and striatum, including the cortical spinal tract (white matter). In particular, the MCAO model in Sprague Dawley rats that was utilized in the experiments presented below mimics the conditions in human ischemic stroke. In this experiment, Sprague Dawley rats were anesthetized, subjected to a surgery resulting in middle cerebral artery occlusion (MCAO), treated with and without 4-aminopyridine and behavioral assessments were performed as described below. Surgical Procedure: A small focal stroke (infarct) was made on the right side of the surface of the brain (cerebral cortex) by middle cerebral artery occlusion (MCAO). The right side of the head was shaved with electric clippers (patch of approx 3×5 cm between eye and ear). The region was carefully cleaned with septisol. Using aseptic technique, an incision was made midway between the eye and eardrum canal. The temporalis muscle was isolated, bisected, and reflected. A small window of bone was removed via drill and rongeurs (subtemporal craniectomy) to expose the middle cerebral artery (MCA). Care was taken not to remove the zygomatic arch or to transect the facial nerve that would impair the ability of the animal to chew after surgery. […] The MCA was then transected. The temporalis muscle was then repositioned, and the incision was closed subcutaneously with sutures. The skin incision was closed with surgical staples (2-3 required). Throughout the procedure, body temperature was maintained at 37.0°±1° C., using a self-regulating heating pad connected to a rectal thermometer. Dosing: Rats were treated in accordance with the dosing schedule shown in Tables 1A, 1B, and FIG. 2, with each Phase being a two week period of time. A solution of 4-AP was used in this experiment. Dosing was started at 4 weeks after ischemic event. Treatment groups: Dosing was started 4 weeks after pMCAO surgery. During these 4 weeks, weekly behavioral assessments, as defined below, were performed. Two dose levels of 4-AP plus vehicle control were assessed, with treatment starting at 4 weeks after ischemic event. All dosing was via gastric gavage, volume not to exceed 2 mL/kg. Animals were given the first dose and behavioral assessments were performed starting 60 minutes after dosing. Animals then received the second dose that day at the appropriate time and b.i.d (preferably every 12 hours) thereafter for 2 more days (3 total days of dosing, 5 total doses). One hour after the 5th dose, animals were subjected to behavioral assessments as defined below. Following the final behavioral assessment, drug was withdrawn for 10 or 11 days, behavior was re-assessed, and then animals were re-challenged with a cross-over treatment (Phase II of Table 1B) as described in Tables 1A, 1B, followed by the same behavioral testing and dosing regimen. This cross-over was repeated one more time as well (Phase III of Table 1B) (see FIG. 2). Behavioral test details: Behavioral evaluations were done by investigators blinded to treatment assignment. As described above, behavioral assessments were timed exactly with dosing times. Animals were given the first dose, behavioral assessments were performed starting 60 minutes later, and blood was collected 90 minutes after dosing. Animals then received the second dose that day at the appropriate time and b.i.d (preferably every 12 hours) thereafter for 2 more days (3 total days of dosing, 5 total doses). One hour after the 5th dose, animals were subjected to behavioral testing. […]"}, "[2]": {"system": "middle cerebral artery occlusion (MCAO) in rats", "test": "Cylinder test, total movement after MCAO", "assay_type": "in vivo, Sprague Dawley rats", "description": "The Y axis represents the behavioral score. […] Treatment groups: Dosing was started 4 weeks after pMCAO surgery. During these 4 weeks, weekly behavioral assessments, as defined below, were performed. Two dose levels of 4-AP plus vehicle control were assessed, with treatment starting at 4 weeks after ischemic event. All dosing was via gastric gavage, volume not to exceed 2 mL/kg. Animals were given the first dose and behavioral assessments were performed starting 60 minutes after dosing. Animals then received the second dose that day at the appropriate time and b.i.d (preferably every 12 hours) thereafter for 2 more days (3 total days of dosing, 5 total doses). One hour after the 5th dose, animals were subjected to behavioral assessments as defined below. Following the final behavioral assessment, drug was withdrawn for 10 or 11 days, behavior was re-assessed, and then animals were re-challenged with a cross-over treatment (Phase II of Table 1B) as described in Tables 1A, 1B, followed by the same behavioral testing and dosing regimen. This cross-over was repeated one more time as well (Phase III of Table 1B) (see FIG. 2). Behavioral test details: Behavioral evaluations were done by investigators blinded to treatment assignment. As described above, behavioral assessments were timed exactly with dosing times. Animals were given the first dose, behavioral assessments were performed starting 60 minutes later, and blood was collected 90 minutes after dosing. Animals then received the second dose that day at the appropriate time and b.i.d (preferably every 12 hours) thereafter for 2 more days (3 total days of dosing, 5 total doses). One hour after the 5th dose, animals were subjected to behavioral testing. Following the final behavioral assessment, drug was withdrawn for 10 or 11 days, behavior was re-assessed, and then animals were re-challenged with a cross-over treatment as described in Tables 1A, 1B, and FIG. 2, followed by the same behavioral testing and dosing regimen. Evaluation was performed at Day -1 (pre-operation), Day 7, Day 21, Day 30, Day 32, Day 44, Day 46, Day 58, Day 60. This test assessed limb use asymmetry. Rats were placed in a transparent cylinder (20 cm in diameter and 30 cm in height) for 3-6 minutes. A mirror was placed behind the cylinder to determine forelimb movements when animal was turned away from the camera. […] Simultaneous use of both left and right forelimbs while contacting the wall during a full rear was also scored. A total number of 20 forelimb placings were counted during a trial. Data was expressed in terms of percent use of the non-impaired and or impaired forelimb relative to the total number of limb use observations for wall movements."}},
  "note": "“And” between values parts separate entries of the source, which are not always exact repeats. Equal entries are not always repeated. “Also recorded” adds a separate entry of the source.",
  "data": [
    {"smiles": "Nc1ccncc1", "note": "[4-AP, 4-aminopyridine]", "values": [
      {"measurement": "Hindlimb Placing Total Score", "setting": "[1]; Group II, D30, individual animals", "value": "2.50 and 1.50 (4×) and 2.00 (3×) and 1.00 and 0.50"},
      {"measurement": "Hindlimb Placing Total Score, Mean", "setting": "[1]; Group II, D30, mean of N 15", "value": 1.73},
      {"measurement": "Hindlimb Placing Total Score", "setting": "[1]; Group II, D32, individual animals", "value": "2.00 and 1.00 (3×) and 1.50 (5×) and 0.50"},
      {"measurement": "Hindlimb Placing Total Score, Mean", "setting": "[1]; Group II, D32, mean of N 15", "value": 1.37},
      {"measurement": "Hindlimb Placing Total Score", "setting": "[1]; Group II, D58, individual animals", "value": "2.00 and 0.00 (4×) and 1.00 and 1.50 (3×) and 0.50"},
      {"measurement": "Hindlimb Placing Total Score, Mean", "setting": "[1]; Group II, D58, mean of N 15", "value": 0.83},
      {"measurement": "Hindlimb Placing Total Score", "setting": "[1]; Group II, D60, individual animals", "value": "0.50 (3×) and 0.00 (6×) and 1.00"},
      {"measurement": "Hindlimb Placing Total Score, Mean", "setting": "[1]; Group II, D60, mean of N 15", "value": 0.23},
      {"measurement": "Hindlimb Placing Total Score, Mean", "setting": "[1]; Group III, D44, high dose phase (inferred), mean of N 15", "value": 0.90},
      {"measurement": "Hindlimb Placing Total Score, Mean", "setting": "[1]; Group III, D46, high dose phase (inferred), mean of N 15", "value": 0.30},
      {"measurement": "Hindlimb Placing Total Score, Mean", "setting": "[1]; Group III, D58, low dose phase (inferred), mean of N 15", "value": 0.80},
      {"measurement": "Hindlimb Placing Total Score, Mean", "setting": "[1]; Group III, D60, low dose phase (inferred), mean of N 15", "value": 0.70},
      {"measurement": "Hindlimb Placing Total Score, Mean", "setting": "[1]; group mean N=15, Group I, Phase 1, D30, High 4-AP 2.0 mg/kg b.i.d. p.o., after first dose", "value": 1.67},
      {"measurement": "Hindlimb Placing Total Score, Mean", "setting": "[1]; group mean N=15, Group I, Phase 1, D32, High 4-AP 2.0 mg/kg b.i.d. p.o., after 5th dose", "value": 0.97},
      {"measurement": "Hindlimb Placing Total Score, Mean", "setting": "[1]; group mean N=15, Group I, Phase 2, D44, Low 4-AP 0.63 mg/kg b.i.d. p.o., after first dose", "value": 1.33},
      {"measurement": "Hindlimb Placing Total Score, Mean", "setting": "[1]; group mean N=15, Group I, Phase 2, D46, Low 4-AP 0.63 mg/kg b.i.d. p.o., after 5th dose", "value": 1.13},
      {"measurement": "Hindlimb Placing Total Score", "setting": "[1]; individual animals, Group I, Phase 1, D30, High 4-AP 2.0 mg/kg b.i.d. p.o., 60 min after first dose, 0=normal, 6=maximally impaired", "value": "1.50 (7×) and 3.00 (2×) and 2.50 (2×) and 2.00 and 1.00 and 0.00 and 0.50"},
      {"measurement": "Hindlimb Placing Total Score", "setting": "[1]; individual animals, Group I, Phase 1, D32, High 4-AP 2.0 mg/kg b.i.d. p.o., 1 h after 5th dose, 0=normal, 6=maximally impaired", "value": "1.00 and 3.00 and 1.50 (6×) and 0.00 (4×) and 0.50 (3×)"},
      {"measurement": "Hindlimb Placing Total Score", "setting": "[1]; individual animals, Group I, Phase 2, D44, Low 4-AP 0.63 mg/kg b.i.d. p.o., 60 min after first dose, 0=normal, 6=maximally impaired", "value": "2.00 (4×) and 3.00 and 1.50 (3×) and 0.50 (2×) and 0.00 (3×) and 2.50 and 1.00"},
      {"measurement": "Hindlimb Placing Total Score", "setting": "[1]; individual animals, Group I, Phase 2, D46, Low 4-AP 0.63 mg/kg b.i.d. p.o., 1 h after 5th dose, 0=normal, 6=maximally impaired", "value": "2.00 (3×) and 3.00 and 1.50 (4×) and 0.00 (4×) and 0.50 (2×) and 1.00"},
      {"measurement": "effect on hindlimb function (hindlimb placing test)", "setting": "[1]; low or high dose, 4 weeks post ischemic brain injury, rats, dose responsive, reversible", "value": "effective to improve hindlimb function; also recorded: significant improvement"},
      {"measurement": "Cylinder Test (Total Movement), Mean", "setting": "[2]; Group I, D30, first dosing phase (high dose, inferred)", "value": 9.47},
      {"measurement": "Cylinder Test (Total Movement), Mean", "setting": "[2]; Group I, D32, first dosing phase (high dose, inferred)", "value": 16.20},
      {"measurement": "Cylinder Test (Total Movement), Mean", "setting": "[2]; Group I, D44, second dosing phase (low dose, inferred)", "value": 39.20},
      {"measurement": "Cylinder Test (Total Movement), Mean", "setting": "[2]; Group I, D46, second dosing phase (low dose, inferred)", "value": 23.87},
      {"measurement": "Cylinder Test (Total Movement), Mean", "setting": "[2]; Group II, D30, N 15", "value": 46.87},
      {"measurement": "Cylinder Test (Total Movement), Mean", "setting": "[2]; Group II, D32, N 15", "value": 36.20},
      {"measurement": "Cylinder Test (Total Movement), Mean", "setting": "[2]; Group II, D58, N 15", "value": 11.60},
      {"measurement": "Cylinder Test (Total Movement), Mean", "setting": "[2]; Group II, D60, N 15", "value": 12.93},
      {"measurement": "Cylinder Test (Total Movement), Mean", "setting": "[2]; Group III, D44, N 15", "value": 19.13},
      {"measurement": "Cylinder Test (Total Movement), Mean", "setting": "[2]; Group III, D46, N 15", "value": 18.73},
      {"measurement": "Cylinder Test (Total Movement), Mean", "setting": "[2]; Group III, D58, N 15", "value": 32.33},
      {"measurement": "Cylinder Test (Total Movement), Mean", "setting": "[2]; Group III, D60, N 15", "value": 26.67}
    ]}
  ]
}
